The source made the active and inactive calls. The calls are words filed in the database; no cut-off is given here.
What was measured:
Histone deacetylase = test: Inhibition of HDAC in human HeLa cells nuclear extract; format: subcellular, Nucleus
NCI-H1975 [1] = test: cells; format: functional, cell-based; details: Homo sapiens, NCI-H1975, 48 h
Description: Cytotoxicity against human NCI-H1975 cells assessed as inhibition of cell growth incubated for 48 hrs by Celltiter-glo assay

MDA-MB-231 = test: Cytotoxicity against human MDA-MB-231 cells assessed as inhibition of cell growth incubated for 48 hrs by Celltiter-glo assay; format: functional, cell-based; details: MDA-MB-231, 48 h
[2] = Antiproliferative activity against human CL83 cells harboring wild-type EGFR assessed as inhibition of cell growth by SRB assay; format: functional, cell-based
[3] = Antiproliferative activity against human CL100 cells harboring mutated EGFR assessed as inhibition of cell growth by SRB assay; format: functional, cell-based
[4] = Antiproliferative activity against human CL1-5 cells harboring wild-type EGFR assessed as inhibition of cell growth by SRB assay; format: functional, cell-based
CL97 = test: Antiproliferative activity against human CL97 cells harboring mutated EGFR assessed as inhibition of cell growth by SRB assay; format: functional, cell-based
[5] = Antiproliferative activity against human CL152 cells harboring wild-type EGFR assessed as inhibition of cell growth by SRB assay; format: functional, cell-based
NCI-H1975 [6] = test: Induction of katanin activation mediated microtubule fragmentation in human NCI-H1975 cells at 80 nM incubated for 12 hrs by FITC/DAPI staining based confocal laser microscopic analysis; format: cell-based; details: filed as activator
[7] = Antiproliferative activity against human CL25 cells harboring mutated EGFR assessed as inhibition of cell growth by SRB assay; format: functional, cell-based
CL1-0 = test: Antiproliferative activity against human CL1-0 cells harboring wild-type EGFR assessed as inhibition of cell growth by SRB assay; format: functional, cell-based
[8] = Antiproliferative activity against human CL141 cells harboring wild-type EGFR assessed as inhibition of cell growth by SRB assay; format: functional, cell-based

IC50 (Histone deacetylase) [nM]	IC50 (NCI-H1975 [1]) [nM]	SMILES	other results
> 100000	> 100000	CCOc1ccc(-c2nc(C(=O)O)c3[nH]c(=O)n(-c4ccccc4OC)c3n2)cc1	
30	300	CCOc1ccc(-c2nc(C(=O)NCCCCCCC(=O)NO)c3[nH]c(=O)n(-c4cccnc4OC)c3n2)cc1	IC50 (MDA-MB-231): 60 nM
2	410	CCOc1ccc(-c2nc(C(=O)NCCCCCCC(=O)NO)c3[nH]c(=O)n(-c4cccnc4OC)c3n2)cn1	IC50 (MDA-MB-231): 320 nM
170	140	CCOc1ccc(-c2nc(C(=O)NCCCCCCC(=O)NO)c3[nH]c(=O)n(-c4ccccc4OC)c3n2)cc1	IC50 (MDA-MB-231): 40 nM; IC50 [2]: 320 nM; IC50 [3]: 360 nM; IC50 [4]: 170 nM; IC50 (CL97): 240 nM; IC50 [5]: 260 nM; Activity (NCI-H1975 [6]): Active; IC50 [7]: 320 nM; IC50 (CL1-0): 60 nM; IC50 [8]: 270 nM
> 100000		CCOc1ccc(-c2nc(C(=O)NO)c3[nH]c(=O)n(-c4ccccc4OC)c3n2)cc1	
> 100000	400	CCOc1ccc(-c2nc(C(=O)NCCCCCCC(=O)NOC)c3[nH]c(=O)n(-c4ccccc4OC)c3n2)cc1	
> 100000	2700	CCOc1ccc(-c2nc(C(=O)NCCCCCCCN(Cc3ccccn3)Cc3ccccn3)c3[nH]c(=O)n(-c4ccccc4OC)c3n2)cc1	
200	1500	COc1ccccc1-n1c(=O)[nH]c2c(C(=O)NCCCCCCC(=O)NO)nc(C(C)C)nc21	
> 100000	2200	CCOc1ccc(-c2nc(C(=O)NCCCCCCC(=O)Nc3ccccc3N)c3[nH]c(=O)n(-c4ccccc4OC)c3n2)cc1	
60	24800	CCOc1ccc(-c2nc(C(=O)NCCCCCCC(=O)NO)c3[nH]c(=O)n(-c4ccccc4OC)c3n2)cc1S(N)(=O)=O	
> 100000	> 100000	COc1ccccc1-n1c(=O)[nH]c2c(C(N)=O)nc(-c3ccc(C(C)C)cc3)nc21	
> 100000	1400	CCOc1ccc(-c2nc(C(=O)NCCCCCCC(=O)NC3CCCCC3O)c3[nH]c(=O)n(-c4ccccc4OC)c3n2)cc1 (centres undefined)	
> 100000	2300	CCOc1ccc(-c2nc(C(=O)NCCCCCCC(=O)N(Cc3ccccn3)Cc3ccccn3)c3[nH]c(=O)n(-c4ccccc4OC)c3n2)cc1	
40	400	CCOc1ccc(-c2nc(C(=O)NCCCCCCC(=O)NO)c3[nH]c(=O)n(-c4ccccc4OC)c3n2)cn1	IC50 (MDA-MB-231): 60 nM
> 100000		CCOc1ccc(-c2nc(C(N)=O)c3[nH]c(=O)n(-c4ccccc4OC)c3n2)cc1	
250	130	CCOc1ccc(-c2nc(C(=O)NCc3ccc(C(=O)NO)cc3)c3[nH]c(=O)n(-c4ccccc4OC)c3n2)cc1	IC50 (MDA-MB-231): 70 nM
130	250	CCOc1ccc(-c2nc(C(=O)NOCCCCCC(=O)NO)c3[nH]c(=O)n(-c4ccccc4OC)c3n2)cc1	IC50 (MDA-MB-231): 100 nM
14200	4900	CCOc1ccc(-c2nc(C(=O)NCCCc3nc(C(=O)NO)cs3)c3[nH]c(=O)n(-c4ccccc4OC)c3n2)cc1	
> 100000	3300	CCOc1ccc(-c2nc(C(=O)NCCCCCCNC(=O)NO)c3[nH]c(=O)n(-c4ccccc4OC)c3n2)cc1	
10	1200	COc1ccc(-c2nc(C(=O)NCCCCCCC(=O)NO)c3[nH]c(=O)n(-c4ccccc4OC)c3n2)cc1O	IC50 (MDA-MB-231): 310 nM
> 100000	2000	CCOc1ccc(-c2nc(C(=O)NCCCCCCNC(N)=O)c3[nH]c(=O)n(-c4ccccc4OC)c3n2)cc1	
> 100000	16200	CCOc1ccc(-c2nc(C(=O)NCCCCNC(=O)CN)c3[nH]c(=O)n(-c4ccccc4OC)c3n2)cc1.Cl	
> 100000	500	CCOc1ccc(-c2nc(C(=O)NCCCCC/C(N)=N/O)c3[nH]c(=O)n(-c4ccccc4OC)c3n2)cc1	
> 100000	4900	CCOc1ccc(-c2nc(C(=O)NCCCCCNC(=O)CN)c3[nH]c(=O)n(-c4ccccc4OC)c3n2)cc1.Cl	
> 100000	2400	CCOc1ccc(-c2nc(C(=O)NCCCCCCNC(=O)CN)c3[nH]c(=O)n(-c4ccccc4OC)c3n2)cc1.Cl	
> 100000	3400	CCOc1ccc(-c2nc(C(=O)NCCCCCCC(=O)O)c3[nH]c(=O)n(-c4ccccc4OC)c3n2)cc1	
> 100000	1500	CCOc1ccc(-c2nc(C(=O)NCCCCCCC(=O)N(C)O)c3[nH]c(=O)n(-c4ccccc4OC)c3n2)cc1	
2830	5600	CCOc1ccc(-c2nc(C(=O)NCCCCCCC(=O)CSC(C)=O)c3[nH]c(=O)n(-c4ccccc4OC)c3n2)cc1	
> 100000	2600	CCOc1ccc(-c2nc(C(=O)NCCCCCCC(=O)Nc3nccs3)c3[nH]c(=O)n(-c4ccccc4OC)c3n2)cc1	
10800	4600	CCOc1ccc(-c2nc(C(=O)NCCOCCOCC(=O)NO)c3[nH]c(=O)n(-c4ccccc4OC)c3n2)cc1	

— ChEMBL document CHEMBL5518174 (Eur J Med Chem, 2024)
